# Data: patent publication US8436043B2 (Takeda Pharmaceutical Company Limited, priority 2008, dated 2013)
# Biological target: T1, human glucagon receptor (Homo sapiens, UniProt P47871)
# T1 construct: made in house; host or cells: FreeStyle CHO cells, transient transfection with pMSRαneo/hGCGR; membrane fraction (35,000 rpm pellet)
# Assay: Glucagon binding inhibitory activity ([125I]-glucagon binding to glucagon receptor membrane protein)
# Conditions: test compound 10 μM; 0.4% DMSO = 0%, non-labeled glucagon 1 μM = 100%; read-out: inhibitory rate (%) at 10 μM
# Outline: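 Receptor source was a membrane fraction of transiently transfected CHO cells bearing human receptor; 90 min room-temperature binding, filtration harvest, scintillation counting.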
# T1 sequence (P47871 26-477): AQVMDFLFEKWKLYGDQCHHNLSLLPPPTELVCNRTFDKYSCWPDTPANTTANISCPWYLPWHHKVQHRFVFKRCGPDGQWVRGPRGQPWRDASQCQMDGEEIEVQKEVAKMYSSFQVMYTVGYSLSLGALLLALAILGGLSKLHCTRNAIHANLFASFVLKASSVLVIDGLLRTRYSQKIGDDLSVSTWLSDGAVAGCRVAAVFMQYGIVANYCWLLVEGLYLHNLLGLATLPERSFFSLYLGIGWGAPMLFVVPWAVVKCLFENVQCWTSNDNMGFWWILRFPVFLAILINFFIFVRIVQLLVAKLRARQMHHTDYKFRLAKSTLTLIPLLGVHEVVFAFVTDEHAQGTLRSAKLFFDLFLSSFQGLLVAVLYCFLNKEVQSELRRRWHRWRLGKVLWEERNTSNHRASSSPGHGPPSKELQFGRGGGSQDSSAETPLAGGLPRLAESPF
row,SMILES,inhibition at 10 µM [%]
1,"CSCCOc1ccc2oc(C(Nc3ccc(C(=O)NCCC(=O)O)cc3)C3CCCCC3)c(C)c2c1 (stereo not drawn) [Example A148, 3-[({4-[(cyclohexyl{3-methyl-5-[2-(methylthio)ethoxy]-1-benzofuran-2-yl}methyl)amino]phenyl}carbonyl)amino]propanoic acid]",94
2,"COCCOc1ccc2oc(C(Nc3ccc(C(=O)NCCC(=O)O)cc3)C3CCCCC3)c(C)c2c1 (stereo not drawn) [Example A149, 3-[{[4-({cyclohexyl[5-(2-methoxyethoxy)-3-methyl-1-benzofuran-2-yl]methyl}amino)phenyl]carbonyl}amino]propanoic acid]",69
3,"CSCCCOc1ccc2oc(C(Nc3ccc(C(=O)N(C)CCC(=O)O)cc3)C3CCCCC3)c(C)c2c1 (stereo not drawn) [Example A150, 3-[({4-[(cyclohexyl{3-methyl-5-[3-(methylsulfanyl)propoxy]-1-benzofuran-2-yl}methyl)amino]phenyl}carbonyl)(methyl)amino]propanoic acid]",81
4,"CSCCCOc1ccc2oc(C(Nc3ccc(C(=O)NCCC(=O)O)cc3)C3CCCCC3)c(C)c2c1 (stereo not drawn) [Example A151, 3-[({4-[(cyclohexyl{3-methyl-5-[3-(methylsulfanyl)propoxy]-1-benzofuran-2-yl}methyl)amino]phenyl}carbonyl)amino]propanoic acid]",78
5,"Cc1c(C(Nc2ccc(C(=O)N(C)CCC(=O)O)cc2)C2CCCCC2)oc2ccc(OCCCS(C)(=O)=O)cc12 (stereo not drawn) [Example A152, 3-[({4-[(cyclohexyl{3-methyl-5-[3-(methylsulfonyl)propoxy]-1-benzofuran-2-yl}methyl)amino]phenyl}carbonyl)(methyl)amino]propanoic acid]",76
6,"Cc1c(C(Nc2ccc(C(=O)NCCC(=O)O)cc2)C2CCCCC2)oc2ccc(OCCCS(C)(=O)=O)cc12 (stereo not drawn) [Example A153, 3-[({4-[(cyclohexyl{3-methyl-5-[3-(methylsulfonyl)propoxy]-1-benzofuran-2-yl}methyl)amino]phenyl}carbonyl)amino]propanoic acid]",74
7,"Cc1c(C(Nc2ccc(C(=O)N(C)CCC(=O)O)cc2)C2CCCCC2)oc2ccc(OCc3ccccc3)cc12 (stereo not drawn) [Example A154, 3-[{[4-({[5-(benzyloxy)-3-methyl-1-benzofuran-2-yl](cyclohexyl)methyl}amino)phenyl]carbonyl}(methyl)amino]-propanoic acid]",82
8,"Cc1c(C(Nc2ccc(C(=O)N(C)CCC(=O)O)cc2)C2CCCCC2)oc2ccc(OCc3ccccn3)cc12 (stereo not drawn) [Example A155, 3-[{[4-({cyclohexyl[3-methyl-5-(pyridin-2-ylmethoxy)-1-benzofuran-2-yl]methyl}amino)phenyl]carbonyl}(methyl)amino]propanoic acid]",81

# The next lines start with the values.
row,inhibition at 10 µM [%],SMILES
1,80,"Cc1c(C(Nc2ccc(C(=O)N(C)CCC(=O)O)cc2)C2CCCCC2)oc2ccc(OCc3cccnc3)cc12 (stereo not drawn) [Example A156, 3-[{[4-({cyclohexyl[3-methyl-5-(pyridin-3-ylmethoxy)-1-benzofuran-2-yl]methyl}amino)phenyl]carbonyl}(methyl)amino]propanoic acid]"
2,80,"Cc1c(C(Nc2ccc(C(=O)N(C)CCC(=O)O)cc2)C2CCCCC2)oc2ccc(OCc3ccncc3)cc12 (stereo not drawn) [Example A157, 3-[{[4-({cyclohexyl[3-methyl-5-(pyridin-4-ylmethoxy)-1-benzofuran-2-yl]methyl}amino)phenyl]carbonyl}(methyl)amino]propanoic acid]"
3,79,"Cc1c(C(Nc2ccc(C(=O)NCCC(=O)O)cc2)C2CCCCC2)oc2ccc(OCc3ccccc3)cc12 (stereo not drawn) [Example A158, 3-({[4-({[5-(benzyloxy)-3-methyl-1-benzofuran-2-yl](cyclohexyl)methyl}amino)phenyl]carbonyl}amino)propanoic acid]"
4,74,"Cc1c(C(CC(C)C)Nc2ccc(C(=O)N(C)CCC(=O)O)cc2)oc2ccc(OCc3ccccc3)cc12 (stereo not drawn) [Example A159, 3-[{[4-({1-[5-(benzyloxy)-3-methyl-1-benzofuran-2-yl]-3-methylbutyl}amino)phenyl]carbonyl}(methyl)amino]propanoic acid]"
